The assay concerns the target T1, PLK1 (Homo sapiens, UniProt P53350).
T1 construct: endogenous in cells; host or cells: HeLa
The assay is described as follows: PLK1 protein degradation in HeLa cells, Western blotting (PLK1/GAPDH ratio). It counts as cell-based. The following applies: 6 hours compound incubation; for DC50: measured only if the grade of Dmax is A or B; for Dmax: thymidine block and release, 10 points three-fold from 3 μM, PLK1 to GAPDH ratio, read-out: Dmax. The essentials:
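Thymidine-synchronised HeLa cells (2 mM, 24 h) released 4 h into complete medium, then treated 6 h with compound in 10-point 3-fold dilutions from 3 μM. RIPA lysates (15 μg protein) run on SDS-PAGE; PLK1 Western blot normalised to GAPDH.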
In general terms: Immunoblotting shows a protein as a band on a membrane.

Structures are written as SMILES. A value given as a limit tells only on which side of the number the result lay.

As a reminder, the DC50 is the concentration at which degradation of the target reaches its halfway point. Broadly, the Dmax is the greatest extent of degradation seen.

T1 sequence (P53350 whole entry): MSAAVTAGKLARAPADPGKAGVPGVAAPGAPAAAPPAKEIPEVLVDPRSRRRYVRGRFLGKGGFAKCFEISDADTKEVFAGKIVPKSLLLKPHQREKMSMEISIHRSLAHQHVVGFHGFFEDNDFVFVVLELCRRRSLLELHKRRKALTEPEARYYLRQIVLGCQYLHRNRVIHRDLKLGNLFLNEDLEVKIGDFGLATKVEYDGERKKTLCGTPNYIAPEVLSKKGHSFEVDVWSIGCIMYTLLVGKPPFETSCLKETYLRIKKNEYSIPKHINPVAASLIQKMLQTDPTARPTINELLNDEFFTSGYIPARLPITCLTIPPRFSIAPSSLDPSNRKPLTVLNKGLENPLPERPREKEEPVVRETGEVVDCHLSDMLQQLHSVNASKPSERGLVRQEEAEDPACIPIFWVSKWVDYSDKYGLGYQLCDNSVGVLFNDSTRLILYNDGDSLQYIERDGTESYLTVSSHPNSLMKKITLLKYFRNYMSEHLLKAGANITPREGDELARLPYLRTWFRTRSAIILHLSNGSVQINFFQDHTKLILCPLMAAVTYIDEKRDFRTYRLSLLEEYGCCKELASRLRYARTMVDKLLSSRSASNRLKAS

As to `COc1cc(C(=O)NC2CCN(C(=O)COCCOCCNc3cccc4c3CN(C3CCC(=O)NC3=O)C4=O)C2)c(F)cc1Nc1ncc2c(n1)N(C1CCCC1)CC(F)(F)C(=O)N2C` (centres unmarked) [Compound 150, 4-((9-cyclopentyl-7,7-difluoro-5-methyl-6-oxo-6,7,8,9-tetrahydro-5H-pyrimido[4,5-b][1,4]diazepin-2-yl)amino)-N-(1-(2-(2-(2-((2-(2,6-dioxopiperidin-3-yl)-1-oxoisoindolin-4-yl)amino)ethoxy)ethoxy)acetyl)pyrrolidin-3-yl)-2-fluoro-5-methoxybenzamide], the DC50 is no more than 50 nM and the Dmax is no less than 80%.

Take `COc1cc(C(=O)NC2CCN(CCOCCOCCOCCOCCNc3cccc4c3C(=O)N(C3CCC(=O)NC3=O)C4=O)CC2)c(F)cc1Nc1ncc2c(n1)N(C(C)C)CC(F)(F)C(=O)N2C` (centres unmarked) [Example 101, 4-((7,7-difluoro-9-isopropyl-5-methyl-6-oxo-6,7,8,9-tetrahydro-5H-pyrimido[4,5-b][1,4]diazepin-2-yl)amino)-N-(1-(14-((2-(2,6-dioxopiperidin-3-yl)-1,3-dioxoisoindolin-4-yl)amino)-3,6,9,12-tetraoxatetradecyl)piperidin-4-yl)-2-fluoro-5-methoxybenzamide]: the DC50 was no more than 50 nM and the Dmax was no less than 80%.

As for `COc1cc(C(=O)NC2CCN(CCCCCNC(=O)COc3cccc4c3C(=O)N(C3CCC(=O)NC3=O)C4=O)CC2)c(F)cc1Nc1ncc2c(n1)N(C1CCCC1)CC(F)(F)C(=O)N2C` (centres unmarked) [Compound 59, 4-((9-cyclopentyl-7,7-difluoro-5-methyl-6-oxo-6,7,8,9-tetrahydro-5H-pyrimido[4,5-b][1,4]diazepin-2-yl)amino)-N-(1-(5-(2-((2-(2,6-dioxopiperidin-3-yl)-1,3-dioxoisoindolin-4-yl)oxy)acetamido)pentyl)piperidin-4-yl)-2-fluoro-5-methoxybenzamide], the Dmax is less than 60%.

For the compound `COc1cc(C(=O)NC2CCN(Cc3cn(CCNC(=O)CNc4cccc5c4C(=O)N(C4CCC(=O)NC4=O)C5=O)nn3)CC2)c(F)cc1Nc1ncc2c(n1)N(C1CCCC1)CC(F)(F)C(=O)N2C` (centres unmarked) [Compound 47, 4-((9-cyclopentyl-7,7-difluoro-5-methyl-6-oxo-6,7,8,9-tetrahydro-5H-pyrimido[4,5-b][1,4]diazepin-2-yl)amino)-N-(1-((1-(2-(2-((2-(2,6-dioxopiperidin-3-yl)-1,3-dioxoisoindolin-4-yl)amino)acetamido)ethyl)-1H-1,2,3-triazol-4-yl)methyl)piperidin-4-yl)-2-fluoro-5-methoxybenzamide], the Dmax was less than 60%.

With `CN1C(=O)C(F)(F)CN(C2CCCC2)c2nc(Nc3cc(F)c(C(=O)NC4CCN(CCOCCOCCNc5cccc6c5C(=O)N(C5CCC(=O)NC5=O)C6=O)CC4)cc3OC3CCCC3)ncc21` (centres unmarked) [Example 95, 4-((9-cyclopentyl-7,7-difluoro-5-methyl-6-oxo-6,7,8,9-tetrahydro-5H-pyrimido[4,5-b][1,4]diazepin-2-yl)amino)-5-(cyclopentyloxy)-N-(1-(2-(2-(2-((2-(2,6-dioxopiperidin-3-yl)-1,3-dioxoisoindolin-4-yl)amino)ethoxy)ethoxy)ethyl)piperidin-4-yl)-2-fluorobenzamide], the DC50 is greater than 500 nM and the Dmax fell in the range of 60 to 80%.

Turning to `COc1cc(C(=O)NC2CCN(CCCCCCCCCCCNc3cccc4c3C(=O)N(C3CCC(=O)NC3=O)C4=O)CC2)c(F)cc1Nc1ncc2c(n1)N(C1CCCC1)CC(F)(F)C(=O)N2C` (centres unmarked) [Compound 15, 4-((9-cyclopentyl-7,7-difluoro-5-methyl-6-oxo-5H,6H,7H,8H,9H-pyrimido[4,5-b][1,4]diazepin-2-yl)amino)-N-(1-(11-((2-(2,6-dioxopiperidin-3-yl)-1,3-dioxo-2,3-dihydro-1H-isoindol-4-yl)amino)undecyl)piperidin-4-yl)-2-fluoro-5-methoxybenzamide], the DC50 is greater than 500 nM and the Dmax was in the range of 60 to 80%.

On to `COc1cc(C(=O)NC2CCN(C(=O)N3CCN(c4ccc5c(c4)C(=O)N(C4CCC(=O)NC4=O)C5=O)CC3)CC2)c(F)cc1Nc1ncc2c(n1)N(C1CCCC1)CC(F)(F)C(=O)N2C` (centres unmarked) [Compound 72, 4-((9-cyclopentyl-7,7-difluoro-5-methyl-6-oxo-6,7,8,9-tetrahydro-5H-pyrimido[4,5-b][1,4]diazepin-2-yl)amino)-N-(1-(4-(2-(2,6-dioxopiperidin-3-yl)-1,3-dioxoisoindolin-5-yl)piperazine-1-carbonyl)piperidin-4-yl)-2-fluoro-5-methoxybenzamide], for which the half-maximal degradation concentration (DC50) was no more than 500 nM and the Dmax was in the range of 60 to 80%.

In the case of `CC(C)Oc1cc(C(=O)NC2CCN(CCOCCOCCNc3cccc4c3C(=O)N(C3CCC(=O)NC3=O)C4=O)CC2)c(F)cc1Nc1ncc2c(n1)N(C1CCCC1)CC(F)(F)C(=O)N2C` (centres unmarked) [Example 91, 4-((9-cyclopentyl-7,7-difluoro-5-methyl-6-oxo-6,7,8,9-tetrahydro-5H-pyrimido[4,5-b][1,4]diazepin-2-yl)amino)-N-(1-(2-(2-(2-((2-(2,6-dioxopiperidin-3-yl)-1,3-dioxoisoindolin-4-yl)amino)ethoxy)ethoxy)ethyl)piperidin-4-yl)-2-fluoro-5-isopropoxybenzamide], the DC50 is no more than 500 nM and the Dmax is 60 to 80%.

With `COc1cc(C(=O)NCCCCCc2cccc3c2CN(C2CCC(=O)NC2=O)C3=O)c(F)cc1Nc1ncc2c(n1)N(C1CCCC1)CC(F)(F)C(=O)N2C` (centres unmarked) [Example 165, 4-((9-cyclopentyl-7,7-difluoro-5-methyl-6-oxo-6,7,8,9-tetrahydro-5H-pyrimido[4,5-b][1,4]diazepin-2-yl)amino)-N-(5-(2-(2,6-dioxopiperidin-3-yl)-1-oxoisoindolin-4-yl)pentyl)-2-fluoro-5-methoxybenzamide], the Dmax is less than 60%.

Regarding `COc1cc(C(=O)NC2CCN(Cc3ccc(OCCOCCOCCNc4cccc5c4C(=O)N(C4CCC(=O)NC4=O)C5=O)cc3)CC2)c(F)cc1Nc1ncc2c(n1)N(C1CCCC1)CC(F)(F)C(=O)N2C` (centres unmarked) [Compound 41, 4-((9-cyclopentyl-7,7-difluoro-5-methyl-6-oxo-6,7,8,9-tetrahydro-5H-pyrimido[4,5-b][1,4]diazepin-2-yl)amino)-N-(1-(4-(2-(2-(2-((2-(2,6-dioxopiperidin-3-yl)-1,3-dioxoisoindolin-4-yl)amino)ethoxy)ethoxy)ethoxy)benzyl)piperidin-4-yl)-2-fluoro-5-methoxybenzamide], the DC50 was no more than 50 nM and the Dmax was no less than 80%.

With `COc1cc(C(=O)NC2CCN(CCOCCNC(=O)CNc3cccc4c3C(=O)N(C3CCC(=O)NC3=O)C4=O)CC2)c(F)cc1Nc1ncc2c(n1)N(C1CCCC1)CC(F)(F)C(=O)N2C` (centres unmarked) [Compound 29, 4-((9-cyclopentyl-7,7-difluoro-5-methyl-6-oxo-6,7,8,9-tetrahydro-5H-pyrimido[4,5-b][1,4]diazepin-2-yl)amino)-N-(1-(2-(2-(2-((2-(2,6-dioxopiperidin-3-yl)-1,3-dioxoisoindolin-4-yl)amino)acetamido)ethoxy)ethyl)piperidin-4-yl)-2-fluoro-5-methoxybenzamide], the DC50 was no more than 50 nM and the Dmax was no less than 80%.

With `COc1cc(C(=O)N[C@H]2CCN(C(=O)CCC(=O)N3CCN(c4cccc5c4C(=O)N(C4CCC(=O)NC4=O)C5=O)CC3)C2)ccc1Nc1ncc2c(n1)N(C1CCCC1)CC(F)(F)C(=O)N2C` (stereo partly drawn) [Compound 141, 4-((9-cyclopentyl-7,7-difluoro-5-methyl-6-oxo-6,7,8,9-tetrahydro-5H-pyrimido[4,5-b][1,4]diazepin-2-yl)amino)-N-((3S)-1-(4-(4-(2-(2,6-dioxopiperidin-3-yl)-1,3-dioxoisoindolin-4-yl)piperazin-1-yl)-4-oxobutanoyl)pyrrolidin-3-yl)-3-methoxybenzamide], the DC50 is no more than 50 nM and the Dmax was no less than 80%.

With `COc1cc(C(=O)NCCOCCOCCOCCNc2cccc3c2C(=O)N(C2CCC(=O)NC2=O)C3=O)c(F)cc1Nc1ncc2c(n1)N(C1CCCC1)CC(F)(F)C(=O)N2C` (centres unmarked) [Compound 153, 4-((9-cyclopentyl-7,7-difluoro-5-methyl-6-oxo-6,7,8,9-tetrahydro-5H-pyrimido[4,5-b][1,4]diazepin-2-yl)amino)-N-(2-(2-(2-(2-((2-(2,6-dioxopiperidin-3-yl)-1,3-dioxoisoindolin-4-yl)amino)ethoxy)ethoxy)ethoxy)ethyl)-2-fluoro-5-methoxybenzamide], the DC50 was no more than 50 nM and the Dmax was no less than 80%.

`COc1cc(C(=O)NC2CCN(CCCOCCCCNc3cccc4c3C(=O)N(C3CCC(=O)NC3=O)C4=O)CC2)c(F)cc1Nc1ncc2c(n1)N(C1CCCC1)CC(F)(F)C(=O)N2C` (centres unmarked) [Compound 20, 4-((9-cyclopentyl-7,7-difluoro-5-methyl-6-oxo-6,7,8,9-tetrahydro-5H-pyrimido[4,5-b][1,4]diazepin-2-yl)amino)-N-(1-(3-(4-((2-(2,6-dioxopiperidin-3-yl)-1,3-dioxoisoindolin-4-yl)amino)butoxy)propyl)piperidin-4-yl)-2-fluoro-5-methoxybenzamide]: the Dmax is less than 60%.

Turning to `CCOc1cc(C(=O)NC2CCN(CCOCCOCCNc3cccc4c3C(=O)N(C3CCC(=O)NC3=O)C4=O)CC2)c(F)cc1Nc1ncc2c(n1)N(C1CCCC1)CC(F)(F)C(=O)N2C` (centres unmarked) [Example 90, 4-((9-cyclopentyl-7,7-difluoro-5-methyl-6-oxo-6,7,8,9-tetrahydro-5H-pyrimido[4,5-b][1,4]diazepin-2-yl)amino)-N-(1-(2-(2-(2-((2-(2,6-dioxopiperidin-3-yl)-1,3-dioxoisoindolin-4-yl)amino)ethoxy)ethoxy)ethyl)piperidin-4-yl)-5-ethoxy-2-fluorobenzamide], the DC50 is no more than 500 nM and the Dmax is 60 to 80%.

Values taken from patent US20230372498A1, “PLK1 SELECTIVE DEGRADATION INDUCING COMPOUND” (UPPTHERA, priority 2020, published 2023).
